The values below come from PubChem BioAssay (NCI).

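Step 1: Grow cells in 96-well plates. Step 2: Expose to compound for 48 hours at 5 concentrations. Step 3: Interpolate endpoints linearly; if unreached, use highest concentration. Abbreviation: GI50, concentration required for 50% inhibition of growth. TGI marks complete inhibition of growth.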 Some results are limits rather than exact numbers.

What all share (experiment): NCI anticancer screen, dose series, 48 h
Assay [1] has as its system CAKI-1 renal.
For assay [2], the system named is K-562 leukemia.
Assay [3] has as its system MCF7 breast.
The test system of assay [4] is RXF 393 renal.
The test system of assay [5] is SK-MEL-28 melanoma.
Assay [6] concerns SK-MEL-5 melanoma.
The test system of assay [7] is SN12C renal.
Assay [8] has as its system SNB-19 CNS.
The test system of assay [9] is SR leukemia.
The test system of assay [10] is UACC-257 melanoma.

For `COc1cccc(CC(C)=C(c2ccc(OCCCN(C)C)cc2)c2ccc(OCCCN(C)C)cc2)c1`, the GI50 in [1] is 0.683 µM; in assay [2], 0.484 µM; in [3], 0.441 µM; in [4], 0.597 µM; in assay [5], 0.448 µM; in assay [6] it was 0.57 µM. The GI50 in assay [7] was 0.533 µM; in assay [8], 0.905 µM; in assay [9], 0.44 µM; in assay [10] it was 0.498 µM. Also, the TGI in assay [1] was found to be 1.95 µM; in assay [2], 1.16 µM; in [3], 0.859 µM; in assay [4] it was 2.57 µM; in assay [5], 0.822 µM; in assay [6] it was 1.31 µM. Further, the TGI came out at 1.22 µM in assay [7], 3.34 µM in [8], 1.21 µM in assay [9] and 1.09 µM in [10].

Turning to `CC/C=C\C/C=C/C=C1/C(=O)C=C[C@@H]1C/C=C\CCCC(=O)OC`, the GI50 in [1] was 3.22 µM; in assay [2], 1.38 µM; in [3], 0.5 µM; in assay [4], 1.94 µM; in assay [5], 2.33 µM; in assay [6] it was 1.99 µM. The GI50 in [7] was 2.7 µM; in assay [8], 5.06 µM; in [9], 0.398 µM; in assay [10], 3.27 µM. Also, the TGI in assay [1] was 10.7 µM; in [2], 20.9 µM; in assay [3], 12.5 µM; in [4] it was 3.84 µM; in assay [5] it was 6.42 µM; in [6] it was 4.05 µM. Further, the TGI in [7] amounted to 7.79 µM; in [8], 19.3 µM; in assay [9] it was 15.5 µM; in assay [10], 11.4 µM.

As to `O=C(NN1C(=O)CSC1c1ccc(F)cc1)C(O)c1ccccc1` (stereo not given), the GI50 in assay [1] was greater than 100 µM; in assay [2] it was 43.3 µM; in assay [3], greater than 100 µM; in assay [4], greater than 100 µM; in assay [5], greater than 100 µM; in [6], greater than 100 µM. Moreover, the GI50 is greater than 100 µM in [7], greater than 100 µM in assay [8], 60.8 µM in assay [9] and greater than 100 µM in assay [10]. Further, the TGI in assay [1], in assay [2], in [3], in assay [4], in assay [5] and in assay [6] was greater than 100 µM each time. Further, the TGI in assay [7], in assay [8], in [9] and in assay [10] was greater than 100 µM throughout.

Consider `O=C1c2ccccc2C(=O)N1C1(C(=O)NC2(C(=O)O)CCCC2)CCCC1`, for which the TGI in [1], in assay [2], in assay [3], in [4], in [5] and in assay [6] was greater than 100 µM in each case. For the same compound, the TGI in assay [7], in assay [8], in [9] and in assay [10] was greater than 100 µM in each case.

For the compound `CC(=O)O.CC(=O)O.CC(=O)O.CC(=O)O.[Rh].[Rh]`, the GI50 in [1] was 12.2 µM; in assay [2] it was 18.5 µM; in assay [3], 27.2 µM; in [4], 10.5 µM; in assay [5], 32.3 µM; in assay [6], 18.6 µM. Besides, the GI50 in [7] is 40.3 µM; in [8], 60 µM; in assay [9], 21.1 µM; in assay [10], 19.5 µM. The TGI in assay [1] is 30.7 µM; in assay [2] it was 56.2 µM; in [3], greater than 100 µM; in assay [4] it was 78.3 µM; in assay [5] it was 93.8 µM; in assay [6] it was 37 µM. Moreover, the TGI in assay [7] is greater than 100 µM; in assay [8], greater than 100 µM; in assay [9] it was 40.2 µM; in assay [10], 64.8 µM.

For `C=C1CC[C@@H]2[C@](C)(COC(C)=O)[C@H](OC(C)=O)CC[C@@]2(C)[C@@H]1CC(Nc1ccc(S(=O)(=O)Nc2nccs2)cc1)C1=CCOC1=O` (stereo not given in full), the GI50 in assay [1] was 3.8 µM; in assay [2], 3.6 µM; in assay [3], 2.59 µM; in assay [4], 2.36 µM; in [5], 3.95 µM; in [6] it was 4.79 µM. Further, the GI50 in assay [7] was 1.87 µM; in assay [8], 4.36 µM; in assay [9], 1.33 µM; in assay [10], 2.55 µM. Further, the TGI in assay [1] worked out at 14.2 µM; in [2], 29 µM; in [3], 13.6 µM; in assay [4] it was 4.74 µM; in [5], 15.1 µM; in assay [6], 17.1 µM. In addition, the TGI in [7] is 4.39 µM; in assay [8] it was 16.1 µM; in assay [9], greater than 100 µM; in assay [10] it was 5.61 µM.

Take `COc1cc(/C=C/[N+](=O)[O-])cc(OC)c1OC`: the GI50 in assay [1] was 1.49 µM; in assay [2], 2.81 µM; in assay [3], 3.08 µM; in [4], 1.47 µM; in [5], 2.23 µM; in [6], 1.55 µM. The GI50 was 2.51 µM in assay [7], 5.64 µM in assay [8], 3.36 µM in assay [9] and 2.46 µM in assay [10]. The TGI in assay [1] was 7.39 µM; in [2], greater than 100 µM; in [3], 14.6 µM; in assay [4] it was 2.97 µM; in [5], 4.9 µM; in assay [6], 3 µM. The TGI in assay [7] worked out at 9.26 µM; in assay [8], 18.4 µM; in assay [9], 12.5 µM; in assay [10] it was 9.83 µM.

In the case of `COc1cccc(C2C(C#N)=C(N)Oc3c2ccc2ccccc32)c1` (stereo not given), the GI50 in [1] was less than 0.01 µM; in assay [2], less than 0.01 µM; in assay [3], less than 0.01 µM; in assay [4], less than 0.0161 µM; in [5], 2.31 µM; in assay [6], less than 0.0185 µM. Besides, the GI50 in assay [7] is 0.0406 µM; in [8], 0.0322 µM; in [9] it was less than 0.01 µM; in assay [10] it was 0.901 µM. For the same compound, the TGI in assay [1] is 14 µM; in assay [2], greater than 44 µM; in [3] it was 12.8 µM; in assay [4], 0.975 µM; in assay [5] it was 24.5 µM; in [6] it was 0.108 µM. For the same compound, the TGI in assay [7] was 13.5 µM; in assay [8], 20.5 µM; in assay [9], greater than 66.7 µM; in [10], 32.8 µM.
